The text below walks through data of US10172816B2, “Method of treating chronic obstructive pulmonary disease (CPD) with verproside” (YUNGJIN PHARMACEUTICAL CO., LTD, priority 2013, dated 2019).

Molecules are shown by their SMILES.

Experiment [1] has as its system inflammatory immunocytes and neutrophils in BALF. In words: COPD mouse model (LPS+CS, i.t.): immunocytes, neutrophils and T lymphocytes in BALF. Format: in vivo, BALB/c mice. Particulars: 15 mg/kg, p.o. The procedure: Specific pathogen-free male BALB/c mice (about 18-20 g), aged 8 weeks, which were routinely screened serologically for relevant respiratory pathogens, were purchased from ORIENT Co. (www.orient.co.kr, Seoul, Korea) and bred allowing to access freely to feed and water in breeding room controlling the temperature of 22±2° C., and humidity of 55±15% at the light-dark cycle for 12 hours and acclimated with the experimental environment for 1 week. […] 8 weeks aged BALB/c male mice was anaesthetized with 7% chloral hydrate and 100 μl of LPS+CS mixture {LPS (100 μg/ml)+standard cigarette extract (Cigarette smoking (CS), 4 mg/ml)=1:1} was inhaled to mice (i.t.) for three weeks once a week to prepare COPD animal model. Briefly, 100 μl of LPS+CS mixture was evenly inhaled to nose and mouth of fastened mice (i.t). […] After the end of experiment, the blood, BALF, and pneumonocyte of each mice were isolated and collected to test. After blood collection, 1 ml of FBS-free/DMEM medium contained in injector was injected to the trachea of autopsied mice, and the mice was fixed with string to circulate the blood three times and isolate the cell from BALF. […] The isolated PBMCs, BAL (Bronchoalveolar lavage), and pneumocyte were adjusted to 5×10^5 cells and performed to immunofluorescence staining at 4° C. PE-anti-CD3e (553064, BD Pharmingen, USA), FITC-anti-CD8 (553031, BD Pharmingen, USA), PE-anti-CD4 (553047, BD Pharmingen, USA), PE-anti-Gr-1 (553128, BD Pharmingen, USA), and FITC-anti-neutrophil (ab55453, Abcam, UK) were added thereto, respectively, and reacted for 30 mins in ice. After the reaction, the cells were washed with phosphate buffered physiological saline solution more than three times and the cell frequency (%) of CD3^+CD4^+& CD3^+CD8^+, and Gr-1^+Neutrophil^+ was determined using by Cell Quest program (643274, BD Biosciences, USA) of the flow cytometer (FACSCalibur, Becton, Dickinson, USA) and the absolute total number in each tissue was calculated by applying total cells.

For another experiment, the system named is MMP-9. The experiment in a line: COPD rat model: MMP-9 activity in lung tissue (gelatin zymography). Format: in vivo, Sprague-Dawley rat. Particulars: ATC2 and Verproside 30 mg/kg, p.o.; level similar to Daxas group. The protocol:
The exposure of cigarette smoke was performed by using a cigarette smoke generator (CH Technology Corp. USA). In a detail, 1 hour after the orally administration of test samples using by Head/nose-only exposure unit (TSE System, German) according to nose-only method, the cigarette smoke was exposed by inhalation for 3 days every hour. 8 puffs (volume 35 ml, duration 2 sec, interval 1 time/min) per one piece of standard cigarette was performed in the experiment. […]
The lung tissue of rat was homogenized with Tissue lysis buffer (C3228, Sigma-Aldrich, USA) treated with a protease inhibitor (11836153001, Roche, Germany) and the homogenized lung tissue was centrifuged at 12000 rpm for 10 mins to isolate the supernatant. The protein assay reagent (500-0006, Bio-Rad, USA) was used to quantification. […] The density of MMP-9 band was determined using by Chemi-doc (170-8070, Bio-Rad, USA) to determine the activity of MMP-9.

As to `O=C(O[C@H]1[C@@H]2C=CO[C@@H](O[C@@H]3O[C@H](CO)[C@@H](O)[C@H](O)[C@H]3O)[C@@H]2[C@@]2(CO)O[C@@H]12)c1ccc(O)c(O)c1` [verproside, 6-O-(3,4-dihydroxybenzoyl) catalpol], in experiment [1], the “number of total immunocyte in BALF compared with control group” value is “sharply reduced”; the “reduction of number of neutrophils (Diff-Quik stained, cytospin) in BALF compared with control group” value was “more than 94.2%”; the “reduction of total absolute cell number of CD4+ T cell in BALF compared with control group” value is reported as “more than 32.9%”; the “reduction of total absolute cell number of CD8+ T cell in BALF compared with control group” value is recorded as “not significantly different”. The “reduction of total absolute cell number of Neutrophils+Gr-1+ cell in BALF compared with control group” value in experiment [1] was “more than 93.9%”. The “activity of MMP-9 in lung tissue” value in the experiment on MMP-9 is listed as “remarkably reduced activity”.
